Results from publication PMC9500544, “Anti-Trichomonas gallinae activity of essential oils and main compounds from Lamiaceae and Asteraceae plants” (Frontiers in Veterinary Science, 2022).
Values after ≈ are worked out from the molar mass of the structure shown. Read-outs that look alike come from different tables or passages of the source.

Legend:
in vitro = type: cell-based
Protocol: (§1) African green monkey kidney cells (Vero cells) were grown in Dulbecco's modified Eagle's minimal essential medium (DMEM, Avantor, Llinars del Vallès, Barcelona) supplemented with 10% fetal calf serum (Sigma, Madrid, Spain) and 1% penicillin/streptomycin (Fisher Scientific, Madrid, Spain) at 37°C under a humidified atmosphere of 5% CO2/95% air.
(§2) Cells seeded in 96-well flat-bottom microplates with 100 μL medium per well (initial densities 10^4 cells per well) were exposed for 48 h to serial dilutions of the test compounds in DMSO (<1% final concentration). Cell viability was analyzed by the MTT colorimetric assay method, and the purple-colored formazan precipitate was dissolved with 100 μL of DMSO ([30]).
(§3) IC50 anti-trichomonal activity and CC50 cytotoxic activity were determined from the dose-response experiment, employing a linear regression analysis (% cell viability on log dose).

[1] = test system: Trichomonas gallinae trophozoites; test: Anti-trichomonal (AT) activity in vitro, MTT reduction assay on trophozoites; type: cell-based; settings: for IC50: Trichomonas gallinae, read-out: T. gallinae (IC50), concentration needed to produce 50% trophozoite mortality; for AT activity against T. gallinae (in words): no concentration stated
Protocol: The AT activity assay was performed using round bottom microwell plates in quadruplicate. Each well had 150 μl of T. gallinae trophozoites in Trypticase-Yeast Extract-Maltose medium (TYM) with 10% fetal calf serum (Sigma, Madrid, Spain) at 500.000 trophozoites/ml ([29]). EOs and pure compounds were solved in DMSO (Sigma, Madrid, Spain) (<1% final concentration). […] Trophozoite viability was analyzed using the modified MTT colorimetric assay method as previously described in literature ([29]). Briefly, after incubating the plate for 24 h at 37°C with the EOs and compounds to be tested, the plates were centrifuged at 750 x g, the medium was eliminated and 100 μl of a solution of MTT (Sigma, Madrid, Spain) (1.25 μg/ml) and PMS (Sigma, Madrid, Spain) (0.1 μg/ml) in PBS (Sigma, Madrid, Spain) was added to each well. The plate was incubated for 45 min in dark conditions to allow the reduction of MTT to formazan salts. Prior to reading, 100 μl of DMSO was added to each well to dissolve the formazan crystals. The plate was read in a spectrophotometer using a wavelength of 570 nm.
The percentage of AT activity was calculated as growth inhibition using the following formula:
% AT = 100-[(Ap-Ab)÷(Ac-Ab)]×100
Where Ap is the absorbance of the tested product, Ab the absorbance of the blank and Ac the absorbance of the control wells (culture without treatment).
Pure compounds were assayed using the same method described above, although the concentrations tested were 100, 75, 50, 25, 10, and 1 μg/ml. Metronidazole (Acros Organics, Madrid Spain) was used as a reference drug for antitrichomonal activity.
IC50 (μg/ml) reflects the dose needed to produce 50% mortality of T. gallinae trophozoites.
as §3

Vero cells = test: in vitro; type: cell-based; settings: pure compounds; for Vero cells (CC50), concentration needed to produce 50% Vero cell mortality: 48 h exposure, interval in parentheses; for Cytotoxic activity on Vero cells (in words): up to 100 μg/ml, 48 h
Protocol: as §1, §2, §3

[2] = cited from earlier work
[3] = pure compounds, 24 h incubation, interval in parentheses
[4] = pure compounds, 48 h exposure, interval in parentheses, read-out: Vero cells (CC50), concentration needed to produce 50% Vero cell mortality
[5] = SI = CC50 (Vero cells)/IC50 (T. gallinae)

| Molecule | CC50 at 48 h (in vitro; African green monkey) [µg/mL] | IC50 [1, 3] [µg/mL] | CC50 (in vitro; [4]) [µg/mL] | further results |
| --- | --- | --- | --- | --- |
| CC12CCC(CC1)C(C)(C)O2 [1,8 cineole] | > 100 | > 100 | – | – |
| CC1=CCC(O)(C(C)C)CC1 (stereo not shown) [4-terpinenol] | – | 41.5 (≈ 269 µM) | > 100 | SI, Selectivity index [1, 5]: > 2.4 |
| CC1(C)C2CCC1(C)C(O)C2 (stereo not shown) [Borneol] | > 100 | > 100 | – | – |
| C=C1C2CCC(C2)C1(C)C (stereo not shown) [Camphene] | – | 24 (≈ 176 µM) | 74.8 (≈ 549 µM) | – |
| CC12CCC(CC1=O)C2(C)C (stereo not shown) [Camphor] | > 100 | > 100 | – | – |
| Cc1ccc(C(C)C)cc1O [Carvacrol] | – | > 100 | > 100 | – |
| C=C1CC[C@H]2O[C@]2(C)CC[C@@H]2[C@@H]1CC2(C)C [Caryophyllene oxide] | – | – | – | Vero cells (CC50), concentration needed to produce 50% Vero cell mortality (Vero cells): >100 µg/mL; AT activity against T. gallinae (in words) ([1]; pure compounds): slight activity; T. gallinae (IC50), concentration needed to produce 50% trophozoite mortality [1, 3]: ≈100 μg/ml |
| CC1(C)C(=O)[C@@]2(C)CCC1C2 [D-fenchone] | – | – | – | Vero cells (CC50), concentration needed to produce 50% Vero cell mortality (Vero cells): >100 µg/mL; T. gallinae (IC50), concentration needed to produce 50% trophozoite mortality [1, 3]: 61.9 (54.3–70.6) μg/ml |
| C=CC(C)(O)CCC=C(C)C (stereo not shown) [Linalool] | – | > 100 | > 100 | AT activity against T. gallinae (in words) ([1]; pure compounds): not an active AT compound |
| C=CC(C)(CCC=C(C)C)OC(C)=O (stereo not shown) [Linalyl acetate] | – | – | – | CC50 (in vitro): > 100 µg/mL; SI, Selectivity index [1]: > 3.1; IC50 ([1]; 24 h): 32.2 µg/mL |
| Cc1ncc([N+](=O)[O-])n1CCO [Metronidazole, reference compound] | > 100 | 1 (≈ 5.84 µM) | – | – |
| Cc1ccc(C(C)C)c(O)c1 [Thymol] | > 100 | 38.4 (≈ 256 µM) | – | – |
| Cc1ccc(C(C)C)cc1 [p-cymene] | – | 59.7 (≈ 445 µM) | > 100 | SI, Selectivity index [1, 5]: > 1.7 |
| CC1=CCC2CC1C2(C)C (stereo not drawn) [α-pinene] | 88.9 (≈ 653 µM) | 44.2 (≈ 324 µM) | – | Cytotoxic activity on Vero cells (in words) (Vero cells): slightly toxic |
| CC1=CC[C@@H](C(C)(C)O)CC1 [α-terpineol] | – | > 100 | > 100 | – |
| C=C1CC/C=C(\C)CC[C@@H]2[C@@H]1CC2(C)C [β-caryophyllene] | – | 86.1 (≈ 421 µM) | 60.8 (≈ 298 µM) | Cytotoxic activity on Vero cells (in words) (Vero cells): slightly toxic; AT activity against T. gallinae (in words) ([1]; pure compounds): slight activity |
| C=C1CCC2CC1C2(C)C (stereo not drawn) [β-pinene] | – | 29.6 (≈ 217 µM) | 88.2 (≈ 647 µM) | – |
| CC1=CCC(C(C)C)=CC1 [γ-terpinene] | – | 43.8 (≈ 321 µM) | – | CC50 at 48 h (in vitro; [4]): > 100 µg/mL; SI, Selectivity index [1, 5]: > 2.3 |
| α and β thujone | – | – | – | Cytotoxic activity on Vero cells (in words) (Vero cells): did not show cytotoxic effect; Vero cells (CC50), concentration needed to produce 50% Vero cell mortality (Vero cells): >100 µg/mL; T. gallinae (IC50), concentration needed to produce 50% trophozoite mortality [1, 3]: 17.3 (11.3–26.3) μg/ml; Neurotoxicity (in words) [2]: potent neurotoxic substances |
